Patent publication US20140005163A1 (NOVARTIS AG, priority 2010, published 2014)
≈ marks a conversion by molar mass, not a printed value.

Legend:
[1] = Solubility at pH 6.8; format: physicochemical; conditions: pH 6.8, aqueous buffer, thermodynamic from solid; read-out: solubility
Summary of the method: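 Following the procedure of Zhou et al. (2007), compound solubility was determined at pH 6.8.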

[2] = system: PKB Ser473 phosphorylation in Rat1-myr-HA-p110 delta cells; experiment: Reverse protein array assay, PKB Ser473 phosphorylation in Rat1-myr-p110 delta cells; format: cell-based; conditions: read-out: p-PKB IC50
Summary of the method: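 Compound exposure lasted 30 min in Rat1 cells bearing membrane-targeted HA-p110 isoforms, using 8 serial concentrations. Arrayed lysates, each spotted at four dilutions, gave relative fluorescence signals for phospho-Ser473 PKB.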

[3] = system: S6 Ribosomal Protein phosphorylation Ser235/236 in TSC1 null mouse embryo fibroblast (MEF) cells; experiment: Reverse protein array assay, S6 Ribosomal Protein phosphorylation Ser235/236 in TSC1 null MEF cells; format: cell-based; conditions: 1 h, pS6 ribosomal protein Ser235/236, 60 minutes incubation, read-out: p-S6 IC50
Summary of the method: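 TSC1−/− MEFs, seeded and held ≥20 h at 37 °C/5% CO2, were exposed to 8-step serial compound dilutions (0.02% DMSO final; DMSO vehicle control) for 60 min at 37 °C. Cells were then lysed on ice for 10 min and lysates spotted onto reverse protein array chips.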

[4] = target: T1, mTOR (Homo sapiens, UniProt P42345); experiment: Biochemical assay for m-TOR by TR-FRET; conditions: 8 μM ATP, 400 nM GFP-4EBP1, 0.5 nM mTOR
T1 construct: purchased Invitrogen Corporation (Carlsbad/CA, USA) PV4753
Summary of the method: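 Enzyme 0.5 nM, GFP-4EBP1 400 nM, ATP 8 μM (all final); 50 mM HEPES pH 7.5, 10 mM MnCl2, 1 mM DTT; rt. Detection: Tb-α-p4EBP1 [pT46] 0.5 nM in EDTA, TR-FRET, 15 min. Reference compound on every plate, 16-point duplicate dilutions.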

T1 sequence (P42345 1360-2549 limits assumed): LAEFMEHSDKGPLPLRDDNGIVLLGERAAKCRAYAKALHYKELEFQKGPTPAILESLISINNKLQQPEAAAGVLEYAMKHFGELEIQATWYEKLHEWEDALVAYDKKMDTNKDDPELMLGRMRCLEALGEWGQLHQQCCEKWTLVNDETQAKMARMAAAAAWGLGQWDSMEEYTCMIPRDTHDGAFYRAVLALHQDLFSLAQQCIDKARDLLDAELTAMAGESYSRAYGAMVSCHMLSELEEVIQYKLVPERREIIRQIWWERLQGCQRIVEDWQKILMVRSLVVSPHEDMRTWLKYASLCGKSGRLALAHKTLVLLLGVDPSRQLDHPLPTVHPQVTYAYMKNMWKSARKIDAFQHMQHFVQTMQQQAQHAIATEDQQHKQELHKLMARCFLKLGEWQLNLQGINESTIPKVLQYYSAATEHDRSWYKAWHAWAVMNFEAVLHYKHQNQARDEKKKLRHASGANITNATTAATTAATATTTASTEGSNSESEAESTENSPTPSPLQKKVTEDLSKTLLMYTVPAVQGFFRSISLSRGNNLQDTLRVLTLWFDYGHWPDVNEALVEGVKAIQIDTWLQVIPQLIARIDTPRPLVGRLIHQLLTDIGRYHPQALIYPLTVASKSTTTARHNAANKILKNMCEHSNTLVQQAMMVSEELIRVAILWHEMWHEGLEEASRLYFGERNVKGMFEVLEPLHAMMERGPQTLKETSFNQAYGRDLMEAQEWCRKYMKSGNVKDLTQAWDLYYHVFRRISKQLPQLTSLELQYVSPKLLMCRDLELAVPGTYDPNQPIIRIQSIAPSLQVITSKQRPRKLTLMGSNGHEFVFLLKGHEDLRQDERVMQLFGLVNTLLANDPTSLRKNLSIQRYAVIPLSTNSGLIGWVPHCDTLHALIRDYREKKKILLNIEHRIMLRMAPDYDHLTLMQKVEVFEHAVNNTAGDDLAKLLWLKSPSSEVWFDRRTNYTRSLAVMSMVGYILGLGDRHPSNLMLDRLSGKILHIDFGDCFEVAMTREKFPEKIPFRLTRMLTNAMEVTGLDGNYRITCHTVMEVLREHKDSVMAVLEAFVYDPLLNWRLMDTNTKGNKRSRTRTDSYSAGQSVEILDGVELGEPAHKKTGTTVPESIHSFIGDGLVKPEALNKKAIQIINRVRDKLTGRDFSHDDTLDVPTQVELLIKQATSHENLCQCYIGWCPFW

`Cc1nn(C)cc1-n1c(=O)n(C)c2cnc3ccc(-c4cncc(C(C)O)c4)cc3c21` (racemic) [Example 217, (rac)-1-(1,3-Dimethyl-1H-pyrazol-4-yl)-8-[5-(1-hydroxy-ethyl)-pyridin-3-yl]-3-methyl-1,3-dihydro-imidazo[4,5-c]quinolin-2-one] showed a solubility [1] of 414 µg/mL (≈ 999 µM), an IC50 [2] of 249 nM and an IC50 [3] of 10 nM. For the same compound, the IC50 [4] was 12 nM.

With `COc1ccc(-c2ccc3ncc4c(c3c2)n(-c2c(C)nn(C)c2C)c(=O)n4C)cc1OC` [Example 1.9, 8-(3,4-Dimethoxy-phenyl)-3-methyl-1-(1,3,5-trimethyl-1H-pyrazol-4-yl)-1,3-dihydro-imidazo[4,5-c]quinolin-2-one] the solubility [1] was 315 µg/mL (≈ 710 µM), the IC50 [2] was 140 nM and the IC50 [3] was 44 nM. The IC50 [4] was 308 nM.

`Cc1nn(C)cc1-n1c(=O)n(C)c2cnc3ccc(-c4cccnc4)cc3c21` [Example 10.2, 1-(1,3-Dimethyl-1H-pyrazol-4-yl)-3-methyl-8-pyridin-3-yl-1,3-dihydro-imidazo[4,5-c]quinolin-2-one] gave a solubility [1] of 42 µg/mL (≈ 113 µM), an IC50 [2] of 197 nM and an IC50 [3] of 24 nM. For the same compound, the IC50 [4] was 48 nM.

For `CCn1cc(-n2c(=O)n(C)c3cnc4ccc(-c5ccc(CO)nc5)cc4c32)c(C)n1` [Example 16.1, 1-(1-ethyl-3-methyl-1H-pyrazol-4-yl)-8-(6-hydroxymethyl-pyridin-3-yl)-3-methyl-1,3-dihydro-imidazo[4,5-c]quinolin-2-one], the solubility [1] was 75 µg/mL (≈ 181 µM), the IC50 [2] was 130 nM and the IC50 [3] was 33 nM. For the same compound, the IC50 [4] was 34 nM.

Work on `Cc1nn(C)cc1-n1c(=O)n(C)c2cnc3ccc(-c4cncnc4)cc3c21` [Example 26, 1-(1,3-Dimethyl-1H-pyrazol-4-yl)-3-methyl-8-pyrimidin-5-yl-1,3-dihydro-imidazo[4,5-c]quinolin-2-one] yielded a solubility [1] of 242 µg/mL (≈ 652 µM), an IC50 [2] of 450 nM and an IC50 [3] of 5 nM. The IC50 [4] was 112 nM.

`Cc1nn(CC(=O)N(C)C)c(C)c1-n1c(=O)n(C)c2cnc3ccc(-c4ccc(-n5cccn5)cc4)cc3c21` [Example 51.4, 2-{3,5-Dimethyl-4-[3-methyl-2-oxo-8-(4-pyrazol-1-yl-phenyl)-2,3-dihydro-imidazo[4,5-c]quinolin-1-yl]pyrazol-1-yl}-N,N-dimethyl-acetamide] showed a solubility [1] of 11 µg/mL (≈ 21.1 µM), an IC50 [2] of 223 nM and an IC50 [3] of 11 nM. For the same compound, the IC50 [4] was 99 nM.

`CCCOc1ccc(-c2ccc3ncc4c(c3c2)n(-c2cn(C)nc2C)c(=O)n4C)cn1` [Example 55, 1-(1,3-Dimethyl-1H-pyrazol-4-yl)-3-methyl-8-(6-propoxy-pyridin-3-yl)-1,3-dihydro-imidazo[4,5-c]quinolin-2-one] showed a solubility [1] of 3 µg/mL (≈ 7 µM), an IC50 [2] of 54 nM and an IC50 [3] of 18 nM. For the same compound, the IC50 [4] was 25 nM.

`Cc1ncc(-c2ccc3ncc4c(c3c2)n(-c2cn(C)nc2C)c(=O)n4C)cc1N(C)S(C)(=O)=O` [Example 75, N-{5-[1-(1,3-Dimethyl-1H-pyrazol-4-yl)-3-methyl-2-oxo-2,3-dihydro-1H-imidazo[4,5-c]quinolin-8-yl]-2-methyl-pyridin-3-yl}-N-methyl-methanesulfonamide] gave a solubility [1] of 35 µg/mL (≈ 71.2 µM), an IC50 [2] of 177 nM and an IC50 [4] of 260 nM.

Work on `CCNc1cc(-c2ccc3ncc4c(c3c2)n(-c2cn(C)nc2C)c(=O)n4C)cnc1C` [Example 87.1, 1-(1,3-Dimethyl-1H-pyrazol-4-yl)-8-(5-ethylamino-6-methyl-pyridin-3-yl)-3-methyl-1,3-dihydro-imidazo[4,5-c]quinolin-2-one] yielded a solubility [1] of 410 µg/mL (≈ 959 µM), an IC50 [2] of under 5 nM and an IC50 [4] of 3 nM.

`CCNc1cc(-c2ccc3ncc4c(c3c2)n(-c2c(C)nn(CCOC)c2C)c(=O)n4C)cnc1C` [Example 87.4, 8-(5-Ethylamino-6-methyl-pyridin-3-yl)-1-[1-(2-methoxy-ethyl)-3,5-dimethyl-1H-pyrazol-4-yl]-3-methyl-1,3-dihydro-imidazo[4,5-c]quinolin-2-one] gave a solubility [1] of over 486 µg/mL, an IC50 [2] of 91 nM and an IC50 [3] of 41 nM. It also gave an IC50 [4] of 77 nM.

Compound `Cc1ncc(-c2ccc3ncc4c(c3c2)n(-c2cn(C)nc2C)c(=O)n4C)cc1N` [Example 88.2, 8-(5-Amino-6-methyl-pyridin-3-yl)-1-(1,3-dimethyl-1H-pyrazol-4-yl)-3-methyl-1,3-dihydro-imidazo[4,5-c]quinolin-2-one] has a solubility [1] of 136 µg/mL (≈ 340 µM), an IC50 [2] of 59 nM and an IC50 [3] of 7 nM. It also gave an IC50 [4] of 13 nM.

`Cc1nn(C)cc1-n1c(=O)n(C)c2cnc3ccc(-c4ccc(N5CCN(C)CC5)nc4)cc3c21` [Example 96, 1-(1,3-Dimethyl-1H-pyrazol-4-yl)-3-methyl-8-[6-(4-methyl-piperazin-1-yl)-pyridin-3-yl]-1,3-dihydro-imidazo[4,5-c]quinolin-2-one] showed a solubility [1] of over 469 µg/mL, an IC50 [2] of 60 nM and an IC50 [3] of 7 nM. It also gave an IC50 [4] of 87 nM.

Work on `COc1ccc(-c2ccc3ncc4c(c3c2)n(-c2cn(CC(=O)N(C)C)nc2C)c(=O)n4C)cn1` [Example 102, 2-{4-[8-(6-Methoxy-pyridin-3-yl)-3-methyl-2-oxo-2,3-dihydro-imidazo[4,5-c]quinolin-1-yl]-3-methyl-pyrazol-1-yl}-N,N-dimethyl-acetamide] yielded a solubility [1] of 7 µg/mL (≈ 14.8 µM), an IC50 [2] of 78 nM and an IC50 [3] of under 5 nM. For the same compound, the IC50 [4] was 11 nM.

With `CCn1cc(-n2c(=O)n(C)c3cnc4ccc(-c5ccc(COC)nc5)cc4c32)c(C)n1` [Example 104, 1-(1-Ethyl-3-methyl-1H-pyrazol-4-yl)-8-(6-methoxymethyl-pyridin-3-yl)-3-methyl-1,3-dihydro-imidazo[4,5-c]quinolin-2-one] the solubility [1] was 4 µg/mL (≈ 9.33 µM), the IC50 [2] was 110 nM and the IC50 [3] was 39 nM. The IC50 [4] was 53 nM.

`Cc1nn(C)cc1-n1c(=O)n(C)c2cnc3ccc(-c4cccc(N(C)S(C)(=O)=O)c4)cc3c21` [Example 117, N-{3-[1-(1,3-Dimethyl-1H-pyrazol-4-yl)-3-methyl-2-oxo-2,3-dihydro-1H-imidazo[4,5-c]quinolin-8-yl]-phenyl}-N-methyl-methanesulfonamide] showed a solubility [1] of 3 µg/mL (≈ 6.3 µM), an IC50 [2] of 425 nM and an IC50 [3] of 154 nM. For the same compound, the IC50 [4] was 470 nM.

`CNc1ccc(-c2ccc3ncc4c(c3c2)n(-c2cn(C(C)C)nc2C)c(=O)n4C)cn1` [Example 118.1, 1-(1-isopropyl-3-methyl-1H-pyrazol-4-yl)-3-methyl-8-(6-methylamino-pyridin-3-yl)-1,3-dihydro-imidazo[4,5-c]quinolin-2-one] gave a solubility [1] of 3 µg/mL (≈ 7.02 µM), an IC50 [2] of 12 nM and an IC50 [3] of 5 nM. It also gave an IC50 [4] of 5 nM.

`CNc1ccc(-c2ccc3ncc4c(c3c2)n(-c2cn(CC(=O)N(C)C)nc2C)c(=O)n4C)cn1` [Example 118.3, N,N-Dimethyl-2-{3-methyl-4-[3-methyl-8-(6-methylamino-pyridin-3-yl)-2-oxo-2,3-dihydro-imidazo[4,5-c]quinolin-1-yl]-pyrazol-1-yl}-acetamide] showed a solubility [1] of 21 µg/mL (≈ 44.6 µM), an IC50 [2] of 396 nM and an IC50 [3] of 15 nM. It also gave an IC50 [4] of 9 nM.

With `CCNc1cncc(-c2ccc3ncc4c(c3c2)n(-c2cn(C)nc2C)c(=O)n4C)c1` [Example 122, 1-(1,3-Dimethyl-1H-pyrazol-4-yl)-8-(5-ethylamino-pyridin-3-yl)-3-methyl-1,3-dihydro-imidazo[4,5-c]quinolin-2-one] the solubility [1] was 5 µg/mL (≈ 12.1 µM), the IC50 [2] was 56 nM and the IC50 [3] was under 0.5 nM. For the same compound, the IC50 [4] was 5 nM.

Compound `CCOc1ccc(-c2ccc3ncc4c(c3c2)n(-c2cn(CCOC)nc2C)c(=O)n4C)cn1` [Example 131, 8-(6-Ethoxy-pyridin-3-yl)-1-[1-(2-methoxy-ethyl)-3-methyl-1H-pyrazol-4-yl]-3-methyl-1,3-dihydro-imidazo[4,5-c]quinolin-2-one] has a solubility [1] of 4 µg/mL (≈ 8.72 µM), an IC50 [2] of 127 nM and an IC50 [3] of 5 nM. It also gave an IC50 [4] of 143 nM.

In the case of `Cc1nn(C)cc1-n1c(=O)n(C)c2cnc3ccc(-c4cnc(Cl)c(N)c4)cc3c21` [Example 152.2, 8-(5-Amino-6-chloro-pyridin-3-yl)-1-(1,3-dimethyl-1H-pyrazol-4-yl)-3-methyl-1,3-dihydro-imidazo[4,5-c]quinolin-2-one], the solubility [1] is reported as 4 µg/mL (≈ 9.53 µM), the IC50 [2] is reported as 33 nM and the IC50 [3] is reported as 1 nM. For the same compound, the IC50 [4] was 5 nM.

For `CCNc1cc(-c2ccc3ncc4c(c3c2)n(-c2cn(C)nc2C)c(=O)n4C)cnc1COC` [Example 156, 1-(1,3-Dimethyl-1H-pyrazol-4-yl)-8-(5-ethylamino-6-methoxymethyl-pyridin-3-yl)-3-methyl-1,3-dihydro-imidazo[4,5-c]quinolin-2-one], the solubility [1] was over 458 µg/mL, the IC50 [2] was 12 nM and the IC50 [3] was 1 nM. It also gave an IC50 [4] of 5 nM.

For `CCn1cc(-n2c(=O)n(C)c3cnc4ccc(-c5cncc(NC)c5)cc4c32)c(C)n1` [Example 180.1, 1-(1-Ethyl-3-methyl-1H-pyrazol-4-yl)-3-methyl-8-(5-methylamino-pyridin-3-yl)-1,3-dihydro-imidazo[4,5-c]quinolin-2-one], the solubility [1] was 11 µg/mL (≈ 26.6 µM), the IC50 [2] was 41 nM and the IC50 [4] was 5 nM.
